Experimental data from PubChem BioAssay (NCI).
Where “and” joins values, the source holds several entries; their conditions need not be identical. Equal entries are not always repeated.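 Each compound was tested at five concentrations against cells in 96-well plates for 48 hours. GI50: concentration for 50% inhibition of growth. At the TGI there is no net growth.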

Legend:
Assay in all cases: NCI tumour cell line growth inhibition, 48 h
HOP-18 NSCLC = test system: HOP-18 NSCLC
LXFL 529 NSCLC = test system: LXFL 529 NSCLC
M19-MEL melanoma = test system: M19-MEL melanoma
SNB-78 CNS = test system: SNB-78 CNS
DMS 273 small cell lung = test system: DMS 273 small cell lung
KM20L2 colon = test system: KM20L2 colon
HS 578T breast = test system: HS 578T breast
MDA-MB-435 = test system: MDA-MB-435
NCI/ADR-RES ovarian = test system: NCI/ADR-RES ovarian
PC-3 prostate = test system: PC-3 prostate

SMILES	TGI (HOP-18 NSCLC)	TGI (LXFL 529 NSCLC)	TGI (M19-MEL melanoma)	TGI (SNB-78 CNS)	TGI (DMS 273 small cell lung)	TGI (KM20L2 colon)	other results
CC1=CC(/C=C(\C)CCCc2ccoc2)C2(OC(=O)C(C)=C2O)[C@H]2C1CC[C@@H]2C (stereo not given in full)	82.6 µM	58.8 µM	90.6 µM	85.2 µM	–	–	–
Cc1cc(Br)cc(C)c1NC(=O)C(=O)C(C(=O)c1ccc2ccccc2c1)C1OC(=O)c2ccccc21 (stereo not given)	41.3 µM	22.3 µM	46.3 µM	–	86 µM	38.7 µM	–
O=c1n(CC2CO2)c(=O)n(CC2CO2)c(=O)n1CC1CO1 (stereo not given)	202 µM	–	113 µM	199 µM	51.4 µM	201 µM	GI50 (HS 578T breast): 21.6 µM; TGI (HS 578T breast): 188 µM and > 100 µM; TGI (MDA-MB-435): 63.8 µM and > 100 µM; GI50 (NCI/ADR-RES ovarian): 16.3 µM and 11.7 µM; TGI (NCI/ADR-RES ovarian): 237 µM and > 100 µM; GI50 (PC-3 prostate): 20.3 µM; TGI (PC-3 prostate): 75.4 µM and 92.2 µM and > 100 µM
CCN(CC)CCOc1ccc(/C=C(\C#N)c2ccc(OCCN(CC)CC)cc2)cc1	57.3 µM	41.3 µM	28.9 µM	> 87.5 µM	26.5 µM	4.5 µM	–
CCCCN(CCCC)CC(C(=O)Nc1ccc([N+](=O)[O-])cc1[N+](=O)[O-])/C(C)=N\NC(=S)NN (stereo not given)	–	> 100 µM	> 100 µM	–	> 100 µM	> 100 µM	–
CNC(=S)NC1CCCCC1NC(=S)NC (stereo not given)	> 100 µM	> 100 µM	> 100 µM	> 100 µM	> 100 µM	> 100 µM	–
CCOC(=O)Oc1c(OC)cc(C(=O)NC2CCc3cc(OC)c(OC)c(OC)c3-c3ccc(SC)c(=O)cc32)cc1OC (stereo not given)	–	42.1 µM	> 70 µM	–	> 70 µM	–	GI50 (KM20L2 colon): 0.0119 µM; GI50 (LXFL 529 NSCLC): < 0.007 µM; GI50 (M19-MEL melanoma): < 0.007 µM
CC1=Nc2ccccc2C1C(Cc1ccccc1N)c1c(C)[nH]c2ccccc12 (stereo not given)	24.8 µM	32.2 µM	33.1 µM	–	–	28.2 µM	–
COc1ccc(OC)c(NC(=O)C(=O)NNC(=O)c2sc(NNC(C)=O)nc2C)c1	–	81.6 µM	> 100 µM	> 100 µM	–	> 100 µM	–
O=C1CN=C(C[N+](=O)[O-])c2ccccc21	> 100 µM	> 100 µM	–	> 100 µM	> 100 µM	> 100 µM	–
O=C(O/N=C1/CCCC/C1=C\c1ccccc1)c1ccccc1	> 100 µM	> 100 µM	> 100 µM	–	> 100 µM	> 100 µM	–
O=C1CCCC/C(=C/c2ccccc2)N1	> 100 µM	> 100 µM	> 100 µM	> 100 µM	> 100 µM	> 100 µM	–
COC(=O)c1cc2c3ccccc3n(C(C)=O)c2cn1	> 100 µM	> 100 µM	> 100 µM	> 100 µM	> 100 µM	> 100 µM	–
CCCCOC(=O)C1C(c2ccc(Cl)cc2)NC(c2ccc(Cl)cc2)C(C(=O)OCCCC)S1(=O)=O (stereo not given)	> 100 µM	> 100 µM	> 100 µM	–	> 100 µM	> 100 µM	–
COC(=O)C1=C(c2ccc3c(c2)OCO3)O[C@H](c2cc(OC)c(OC)c(OC)c2)[C@H]1COC(C)=O	60.9 µM	36.3 µM	27.9 µM	> 100 µM	> 100 µM	8.72 µM	–
COC(=O)C12C3C4C1C1C2C3C41C(=O)OC(C)(C)C (stereo not given)	> 100 µM	> 100 µM	> 100 µM	> 100 µM	> 60.5 µM	> 100 µM	–
CC(C)(C)OC(=O)NCC(=O)OCc1ccccc1	–	> 100 µM	> 100 µM	> 100 µM	> 100 µM	–	–
CC1OC(n2cc(F)c(=O)[nH]c2=O)C=CC1O (stereo not given)	> 100 µM	> 100 µM	> 100 µM	> 100 µM	> 100 µM	> 100 µM	–
O=C1c2ccccc2C2(Br)C(=O)c3ccccc3C12 (stereo not given)	> 100 µM	> 100 µM	> 100 µM	–	42.5 µM	> 100 µM	–
O=C1c2ccccc2C(=O)C1(Cl)C1(S(=O)(=O)O)c2ccccc2-c2ccccc21	> 100 µM	> 100 µM	> 100 µM	> 100 µM	> 100 µM	> 100 µM	–
O=S(O)CCCCSSCC(O)C(O)CSSCCCCS(=O)O (stereo not given)	> 100 µM	22.5 µM and 30.5 µM	15.6 µM and 29.7 µM	97.7 µM and > 100 µM	> 100 µM	> 100 µM	–
O=S(=O)([O-])c1ccc2c(c1)-c1nc-2nc2[n-]c(nc3nc(nc4[n-]c(n1)c1ccc(S(=O)(=O)[O-])cc41)-c1cc(S(=O)(=O)[O-])ccc1-3)c1ccc(S(=O)(=O)[O-])cc21.[Cu+2].[Na+]	> 100 µM	> 100 µM	> 100 µM	> 100 µM	> 100 µM	> 100 µM	GI50 (DMS 273 small cell lung): 6.07 µM; GI50 (HOP-18 NSCLC): > 100 µM; GI50 (HS 578T breast): > 100 µM; TGI (HS 578T breast): > 100 µM; GI50 (KM20L2 colon): 2.35 µM; GI50 (LXFL 529 NSCLC): 26.5 µM; GI50 (M19-MEL melanoma): 6.21 µM; GI50 (MDA-MB-435): > 100 µM; TGI (MDA-MB-435): > 100 µM; GI50 (PC-3 prostate): 9.44 µM; TGI (PC-3 prostate): > 100 µM; GI50 (SNB-78 CNS): > 100 µM
